Measurements taken from PubChem BioAssay (NCI).
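Interpolation was linear, between the two tested concentrations surrounding the appropriate level; five concentrations were tested over 48 hours in 96-well plates. GI50 marks 50% less growth. Definition used: TGI = concentration required for complete inhibition of growth.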

Key:
Assay in all cases: growth of human tumour cells (NCI), 48 h
CAKI-1 renal = test system: CAKI-1 renal
A549 NSCLC = test system: A549 NSCLC
NCI-H460 lung = test system: NCI-H460 lung
RXF 393 renal = test system: RXF 393 renal
KM12 colon = test system: KM12 colon
MALME-3M melanoma = test system: MALME-3M melanoma
HL-60(TB) leukemia = test system: HL-60(TB) leukemia
NCI-H23 lung = test system: NCI-H23 lung

Row | Compound | GI50 (CAKI-1 renal) [µM] | TGI (CAKI-1 renal) [µM] | GI50 (A549 NSCLC) [µM] | TGI (A549 NSCLC) [µM] | GI50 (NCI-H460 lung) [µM] | TGI (NCI-H460 lung) [µM] | GI50 (RXF 393 renal) [nM] | TGI (RXF 393 renal) [µM] | GI50 (KM12 colon) [µM] | TGI (KM12 colon) [µM] | GI50 (MALME-3M melanoma) [nM] | TGI (MALME-3M melanoma) [µM] | GI50 (HL-60(TB) leukemia) [nM] | TGI (HL-60(TB) leukemia) [µM] | GI50 (NCI-H23 lung) [µM] | TGI (NCI-H23 lung) [µM]
1 | CNC(=S)N/N=C/CSC/C=N/NC(=S)NC | > 100 | > 100 | > 100 | > 100 | > 100 | > 100 | > 100000 | > 100 | > 100 | > 100 | > 100000 | > 100 | > 62300 | > 100 | > 100 | > 100
2 | CCCN1CCCC(c2ccc(Nc3nc(Nc4cc(F)ccc4C(N)=O)c4cc[nH]c4n3)c(OC)c2)C1 (configuration not stated) | 3.17 | 8.63 | 0.129 | 4.16 | 0.116 | 2.99 | 942 | 4.48 | 2.72 | 5.86 | 2690 | 6.34 | 15.6 | 4.82 | 1.5 | 5.95
3 | CCn1nc(C#Cc2c(C)ccc3c(Nc4ccc(Cl)cc4)nccc23)c2c(N)ncnc21 | 4.78 | > 100 | 4.58 | > 100 | 4.22 | > 100 | 2630 | 8.98 | 3.79 | > 100 | 2100 | 7.09 | 598 | > 100 | 3.58 | > 100
4 | CC/C(=C\c1ccc(N(C)C)cc1)c1ccncc1 | 3.42 | > 100 | 5.5 | > 100 | 3.79 | > 100 | 4250 | 20.8 | 3.84 | > 100 | 4520 | > 100 | 4060 | 29.3 | 4.96 | > 100
5 | COc1cc2nc(NC3CCC3)nc(NC3CCN(C(C)C)CC3)c2cc1OC | 1.59 | 3.17 | 3.08 | 14.5 | 3.36 | 12.1 | 1380 | 2.85 | 4.01 | 14.7 | 1760 | 3.23 | 2060 | 4.05 | 4.61 | 17.7
6 | CC(C)OC(=O)OCOP(=O)(OCOC(=O)OC(C)C)C1CCCN(O)C1=O (configuration not stated) | 3.55 | > 100 | 4.01 | > 100 | 1.14 | > 100 | 316 | 2.88 | 0.879 | > 100 | 856 | > 100 | 2480 | > 100 | 8.47 | > 100
7 | CN(C)c1ccc(-c2cc(-c3cccc(NS(C)(=O)=O)c3)nc(N)c2C#N)cc1 | 0.0348 | 15.1 | 0.0537 | > 56.2 | 0.0378 | 18.6 | 18.3 | 0.0565 | 0.0381 | 1.75 | 948 | 47.9 | 36.2 | 0.411 | 0.0457 | 20.5
